Results on four molecules are retold here after patent US9163256B2, “Mutant receptors and their use in a nuclear receptor-based inducible gene expression system” (priority 2004, dated 2015).

pEC50: −log10 of the molar value. Where two headings read alike, the source gives them in different places.

For experiment [1], the target named is CfEcR-DEF mutant V96S (Choristoneura fumiferana, UniProt O77255, V379S). In words: cell-based. Particulars: for Rel Max FI: relative to max fold induction of GS-E ligand; for Emax: NIH3T3, 40 h, read-out: Rel Max FI. Summed up:
(§1)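 Mouse NIH3T3 cells were treated with ligand in DMSO, then transfected with GAL4 luciferase reporter (0.16 μg/well) plus mutant CfEcR-DEF receptor constructs (0.04 μg each/well). Cells were kept at 37° C in 5% FBS and lysed 40 hours after ligand addition for dual-luciferase measurement. Fold induction = ligand RLU ÷ DMSO RLU.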

Experiment [2] concerns the target CfEcR-DEF mutant V96L (Choristoneura fumiferana, UniProt O77255, V379L). In words: cell-based. Particulars: for Emax: NIH3T3, 40 h, read-out: Rel Max FI. Summed up: as §1
Experiment [3] concerns the target CfEcR-DEF mutant V107I/Y127E/A110P (Choristoneura fumiferana, UniProt O77255, A393P/V390I/Y410E). Description: cell-based. As to conditions: for Rel Max FI: relative to max fold induction of GS-E ligand; for Emax: NIH3T3, 40 h, read-out: Rel Max FI. The procedure, abridged: as §1
Experiment [4] addresses CfEcR-DEF mutant V128F/A110P (Choristoneura fumiferana, UniProt O77255, A393P/V411F). Description: cell-based. The procedure, abridged: as §1
Experiment [5] addresses CfEcR-DEF mutant N119F/V96T (Choristoneura fumiferana, UniProt O77255, N402F/V379T). In words: cell-based. Particulars: for Rel Max FI: relative to max fold induction of GS-E ligand; for Emax: NIH3T3, 40 h, read-out: Rel Max FI. Summed up: as §1
Experiment [6] has as its target CfEcR-DEF mutant F109W (Choristoneura fumiferana, UniProt O77255, F392W). In words: cell-based. Particulars: for Rel Max FI: relative to max fold induction of GS-E ligand; for Emax: NIH3T3, 40 h, read-out: Rel Max FI. The procedure, abridged: as §1
Experiment [7] concerns the target CfEcR-DEF mutant L234I (Choristoneura fumiferana, UniProt O77255, L517I). In words: cell-based. As to conditions: for Emax: NIH3T3, 40 h, read-out: Rel Max FI. The procedure, abridged:
as §1

Experiment [8] deals with CfEcR-DEF mutant M92L (Choristoneura fumiferana, UniProt O77255, M375L). In words: cell-based. As to conditions: for Emax: NIH3T3, 40 h, read-out: Rel Max FI. Summed up: as §1
CfEcR-DEF mutant M92L, sequence (O77255 entry or part of it M375L): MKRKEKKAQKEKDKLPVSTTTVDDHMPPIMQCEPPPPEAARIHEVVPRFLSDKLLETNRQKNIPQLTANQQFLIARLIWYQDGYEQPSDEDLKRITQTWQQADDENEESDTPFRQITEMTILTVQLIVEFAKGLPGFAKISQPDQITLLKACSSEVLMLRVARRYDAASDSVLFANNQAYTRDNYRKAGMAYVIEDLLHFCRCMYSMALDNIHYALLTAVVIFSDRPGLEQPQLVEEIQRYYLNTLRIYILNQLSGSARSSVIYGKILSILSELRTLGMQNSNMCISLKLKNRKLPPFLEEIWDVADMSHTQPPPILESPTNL
CfEcR-DEF mutant M92L, sequence (P28702 299-449, further chain): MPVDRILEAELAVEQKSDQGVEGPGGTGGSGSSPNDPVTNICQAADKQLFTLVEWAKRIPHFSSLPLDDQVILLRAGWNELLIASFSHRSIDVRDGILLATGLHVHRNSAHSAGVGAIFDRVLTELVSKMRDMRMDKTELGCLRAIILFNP
Experiment [9] concerns the target CfEcR-DEF mutant M92E (Choristoneura fumiferana, UniProt O77255, M375E). Description: cell-based. Particulars: for Emax: NIH3T3, 40 h, read-out: Rel Max FI. The procedure, abridged: as §1
The target in experiment [10] is CfEcR-DEF mutant V96W (Choristoneura fumiferana, UniProt O77255, V379W). Description: cell-based. Particulars: for Emax: NIH3T3, 40 h, read-out: Rel Max FI. Summed up: as §1
CfEcR-DEF mutant V96W, sequence (O77255 entry or part of it V379W): as the sequence (O77255 entry or part of it M375L) above, with L157M, V161W counted along it
CfEcR-DEF mutant V96W, sequence (P28702 299-449, further chain): as the sequence (P28702 299-449, further chain) above
The target of experiment [11] is CfEcR-DEF mutant R95M (Choristoneura fumiferana, UniProt O77255, R378M). In words: cell-based. Particulars: for Emax: NIH3T3, 40 h, read-out: Rel Max FI. Summed up: as §1
CfEcR-DEF mutant R95M, sequence (P28702 299-449): as the sequence (P28702 299-449, further chain) above
CfEcR-DEF mutant R95M, sequence (O77255 entry or part of it R378M): as the sequence (O77255 entry or part of it M375L) above, with L157M, R160M counted along it
The subject of experiment [12] is CfEcR-DEF mutant N119F. Description: GAL4-driven luciferase reporter assay in NIH3T3 cells. Type of experiment: cell-based, Choristoneura fumiferana. On the procedure:
This construct was prepared in the same way as in switch 1.1 above except wild-type CfEcR-DEF was replaced with mutant CfEcR-DEF comprising a ligand binding domain comprising a substitution mutation selected from Table 1 below.
DNAs were transfected into mouse NIH3T3 cells (ATCC) as follows. Standard methods for culture and maintenance of the cells were followed. Cells were harvested and plated 96-well plates at 2,500 cells per well, in 50 μL of growth medium containing 10% fetal bovine serum (FBS). Twenty-four hours later, the cells were treated with 35 μL of serum-free growth medium containing either dimethylsulfoxide (DMSO; control) or a DMSO solution of ligand. The cells were then transfected using Superfect (Qiagen Inc.) transfection reagent. For each well, 0.625 μL of Superfect was mixed with 14.2 μL of serum-free growth medium. 0.16 μg of reporter construct and 0.04 μg of each receptor construct were added to the transfection reagent mix. The contents of the transfection mix were mixed in a vortex mixer and let stand at room temperature for 30 minutes. At the end of incubation, 15 μL of transfection mix was added to the cells. The cells were maintained at 37° C. and 5% CO2 for 48 hours in 5% FBS.
Reporter Assays: Cells were harvested 40 hours after adding ligands. 125 μL of passive lysis buffer (part of Dual-Luciferase reporter assay system from Promega Corporation) were added to each well of the […] plate. The plates were placed on a rotary shaker for 15 minutes. Twenty μL of lysate were assayed. Luciferase activity was measured using Dual-Luciferase reporter assay system from Promega Corporation following the manufacturer's instructions. Fold induction (FI) activities were calculated by dividing relative light units (“RLU”) in ligand treated cells with RLU in DMSO treated cells (untreated control).
(In a reporter assay the amount or activity of a reporter protein is the signal.)

Setting [13] is: mutant V107I/Y127E/A110P, read-out: EC50.
Where [14] appears, read: mutant V128F/A110P, read-out: EC50.
Setting [15] is: mutant V128F/A110P, relative to max fold induction of GS-E ligand.
[16] abbreviates: mutant N119F/V96T, read-out: EC50.

CfEcR-DEF mutant V96S, sequence (O77255 entry or part of it V379S): as the sequence (O77255 entry or part of it M375L) above, with L157M, V161S counted along it
CfEcR-DEF mutant V96S, sequence (P28702 299-449, further chain): as the sequence (P28702 299-449, further chain) above
CfEcR-DEF mutant N119F/V96T, sequence (O77255 entry or part of it V379T/N402F): as the sequence (O77255 entry or part of it M375L) above, with L157M, V161T, N184F counted along it
CfEcR-DEF mutant N119F/V96T, sequence (P28702 299-449, further chain): as the sequence (P28702 299-449, further chain) above
CfEcR-DEF mutant V96L, sequence (O77255 entry or part of it V379L): as the sequence (O77255 entry or part of it M375L) above, with L157M, V161L counted along it
CfEcR-DEF mutant V96L, sequence (P28702 299-449, further chain): as the sequence (P28702 299-449, further chain) above
CfEcR-DEF mutant V128F/A110P, sequence (P28702 299-449, stated change not applied): as the sequence (P28702 299-449, further chain) above
CfEcR-DEF mutant V128F/A110P, sequence (O77255 entry or part of it A393P/V411F): as the sequence (O77255 entry or part of it M375L) above, with L157M, A175P, V193F counted along it
CfEcR-DEF mutant L234I, sequence (P28702 299-449): as the sequence (P28702 299-449, further chain) above
CfEcR-DEF mutant L234I, sequence (O77255 entry or part of it L517I): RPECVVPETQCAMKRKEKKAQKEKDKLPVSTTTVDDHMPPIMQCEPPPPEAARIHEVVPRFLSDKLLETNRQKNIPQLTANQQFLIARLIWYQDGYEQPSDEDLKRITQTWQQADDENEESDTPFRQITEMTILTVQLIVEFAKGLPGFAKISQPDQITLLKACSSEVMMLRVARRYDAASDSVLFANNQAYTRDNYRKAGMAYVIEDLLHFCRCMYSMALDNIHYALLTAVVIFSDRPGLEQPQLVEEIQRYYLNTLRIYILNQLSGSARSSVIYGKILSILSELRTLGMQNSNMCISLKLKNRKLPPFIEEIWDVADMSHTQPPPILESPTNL
CfEcR-DEF mutant V107I/Y127E/A110P, sequence (P28702 299-449, stated change not applied): as the sequence (P28702 299-449, further chain) above
CfEcR-DEF mutant V107I/Y127E/A110P, sequence (O77255 entry or part of it V390I/A393P/Y410E): as the sequence (O77255 entry or part of it M375L) above, with L157M, V172I, A175P, Y192E counted along it
CfEcR-DEF mutant M92E, sequence (P28702 299-449): as the sequence (P28702 299-449, further chain) above
CfEcR-DEF mutant M92E, sequence (O77255 entry or part of it M375E): as the sequence (O77255 entry or part of it L517I) above, with M169E, I311L counted along it
CfEcR-DEF mutant F109W, sequence (O77255 entry or part of it F392W): as the sequence (O77255 entry or part of it L517I) above, with F186W, I311L counted along it
CfEcR-DEF mutant F109W, sequence (P28702 299-449, further chain): as the sequence (P28702 299-449, further chain) above

As a reminder, the pEC50 is the negative decadic logarithm of the EC50, by convention in mol/L. Take `CC(C)(O)CC[C@@H](O)[C@](C)(O)[C@H]1CC[C@@]2(O)C3=CC(=O)[C@@H]4C[C@@H](O)[C@@H](O)C[C@]4(C)[C@H]3CC[C@]12C` [20E, 20-hydroxyecdysone]: the pEC50 in experiment [1] (mutant V96S, read-out: EC50) is below 4.48; in experiment [2] (mutant V96L, read-out: EC50) it was below 4.48; in experiment [3] (setting [13]) it was below 4.48; in experiment [4] (setting [14]), below 4.48; in [5] (setting [16]), around 5.10; in experiment [6] (mutant F109W, read-out: EC50) it was below 4.48. Also, the pEC50 in experiment [7] (mutant L234I, read-out: EC50) was below 4.48; in experiment [8] (mutant M92L, read-out: EC50) it was below 4.48; in experiment [9] (mutant M92E, read-out: EC50), below 4.48; in experiment [10] (mutant V96W, read-out: EC50), below 4.48; in experiment [11] (mutant R95M, read-out: EC50), below 4.48. Moreover, the “Rel Max FI” value turned out to be 0.02 in experiment [1] (mutant V96S); 0 in experiment [2] (mutant V96L); 0.00 in [3] (mutant V107I/Y127E/A110P); 0 in [4] (mutant V128F/A110P); 0.00 in [4] (setting [15]); 0.46 in experiment [5] (mutant N119F/V96T). Further, the “Rel Max FI” value in [6] (mutant F109W), in [7] (mutant L234I), in experiment [8] (mutant M92L), in experiment [9] (mutant M92E), in experiment [10] (mutant V96W) and in experiment [11] (mutant R95M) was 0 throughout.

Take `CC(C)CC[C@@H](O)[C@](C)(O)[C@H]1CC[C@@]2(O)C3=CC(=O)[C@@H]4C[C@@H](O)[C@@H](O)C[C@]4(C)[C@H]3CC[C@]12C` [PonA, ponasterone A]: the pEC50 is around 5.70 in experiment [1] (mutant V96S, read-out: EC50); 5.13 in experiment [2] (mutant V96L, read-out: EC50); below 4.48 in experiment [3] (setting [13]); below 4.48 in experiment [4] (setting [14]); around 6.52 in [5] (setting [16]); 5.39 in [6] (mutant F109W, read-out: EC50). Besides, the pEC50 is around 5.15 in experiment [7] (mutant L234I, read-out: EC50); below 4.48 in [8] (mutant M92L, read-out: EC50); below 4.48 in experiment [9] (mutant M92E, read-out: EC50); around 5.48 in [10] (mutant V96W, read-out: EC50); below 4.48 in [11] (mutant R95M, read-out: EC50). Besides, the “Rel Max FI” value stood at 0.92 in experiment [1] (mutant V96S); 0.49 in [2] (mutant V96L); 0.01 in experiment [3] (mutant V107I/Y127E/A110P); 0 in experiment [4] (mutant V128F/A110P); 0.00 in experiment [4] (setting [15]); 2.02 in experiment [5] (mutant N119F/V96T). The “Rel Max FI” value in experiment [6] (mutant F109W) is 0.08; in [7] (mutant L234I), 0.56; in experiment [8] (mutant M92L) it was 0; in [9] (mutant M92E) it was 0.01; in [10] (mutant V96W), 0.83; in experiment [11] (mutant R95M), 0. Besides, the “Fold increase over WT” value in [12] (1.6 nM ligand) amounted to 1.33; in experiment [12] (8 nM ligand), 1.7; in experiment [12] (40 nM ligand), 9.42; in [12] (200 nM ligand) it was 6.50; in experiment [12] (1 μM ligand), 3.00.

On to `CCc1cccc(C(=O)NN(C(=O)c2cc(C)cc(C)c2)C(C)(C)C)c1C` [RG-101691, 3,5-Dimethyl-benzoic acid N-tert-butyl-N′-(3-ethyl-2-methyl-benzoyl)-hydrazide], for which the pEC50 in experiment [1] was 6.06; in [2], 5.77; in [3], 6.47; in [4], around 5.30; in [5], 5.44; in experiment [6], 6.31. In addition, the pEC50 in experiment [7] is 6.03; in experiment [8] it was 5.00; in [9], around 4.70; in experiment [10] it was 5.44; in experiment [11] it was 5.48. The Emax in [1] amounted to 90%; in experiment [2] it was 62%; in experiment [3] it was 96%; in experiment [4] (NIH3T3, 40 h, read-out: Rel Max FI) it was 8%; in experiment [5] it was 13%; in [6], 79%. Besides, the Emax in [7] was 73%; in [8], 41%; in [9] it was 8%; in experiment [10] it was 75%; in experiment [11], 57%. In addition, the “Rel Max FI” value in [4] (mutant V128F/A110P, 2400 min) was 0.08.

Turning to `Cc1cc(C)cc(C(=O)N(NC(=O)c2cccc(C(C)C)c2C)C(C)(C)C)c1` [RG-102362, 3,5-Dimethyl-benzoic acid N-tert-butyl-N′-(3-isopropyl-2-methyl-benzoyl)-hydrazide], the pEC50 in [1] was 5.68; in [2], 5.57; in [3], 7.00; in [5] it was around 5.00; in experiment [6], 5.85; in [7], 5.61. For the same molecule, the pEC50 in [8] is around 4.70; in [9], below 4.48; in experiment [10] it was 5.49; in experiment [11], 5.37. Moreover, the Emax in experiment [1] stood at 57%; in [2] it was 58%; in experiment [3], 63%; in experiment [5] it was 19%; in [6] it was 70%; in experiment [7], 44%. The Emax in [8] worked out at 5%; in experiment [9], 4%; in experiment [10], 38%; in [11] it was 27%.
